According to patent US10548994B1, “Control of chronic neuropathic pain and allodynia” (STC.UNM, priority 2013, dated 2020):
“Also recorded” adds a separate entry of the source.

Experiments:
leukocytes = conditions: prior work; cited from earlier work
RAW 264.7 cells [1] = assay: WST-1 cytotoxicity/viability assay; type: cell-based, mouse; conditions: 50, 100, SOO, and 1000 ng/ml, 24 h
Experimental: RAW 264.7 cells were treated with NorBIRT for the indicated concentrations (50, 100, SOO, and 1000 ng/ml) for 24 h. Cytotoxicity was analyzed using an WST-1 assay. The WST-1 conversion assay was based on the mitochondrial function of intact cells.

[2] = tested on: RAW 264.7 macrophage cells; assay: LPS-induced NO production in RAW 264.7 macrophage cells; type: cell-based, mouse; conditions: NorBIRT 500 ng/ml pre-treatment 1, 2, 4 h; LPS 500 ng/ml 24 h
Experimental: The ability of NorBIRT to inhibit LPS-induced NO production in RAW 264.7macrophage cells was tested. Cells were pre-treated with NorBIRT (500 ng/ml) for 1, 2, and 4 h then exposed to LPS (500 ng/ml) for 24 h.

LFA-1 = assay: LPS-stimulated LFA-1 protein expression (ELISA, cell lysates) in RAW 264.7 cells; type: cell-based, mouse; conditions: NorBIRT 500 ng/ml 2 and 4 h, LPS 500 ng/ml 24 h
Experimental: Further, RAW 264.7 cells were pretreated with NorBIRT (500 ng/ml) for 2 and 4 h before being incubated with LPS (500 ng/ml). After 24 h of incubation, LFA-1 was measured in celllysates by ELISA.

CCL2 = assay: LPS-stimulated CCL2 production in RAW 264.7 cells; type: cell-based, mouse; conditions: NorBIRT 500 ng/ml 1 h; LPS 500 ng/ml 24 h; supernatants and cell lysates
Experimental: RAW 264.7 cells were also pretreated with NorBIRT (500 ng/ml) for 1 h before being incubated with LPS (500 ng/ml) for 24 h. The culture supernatant was analyzed for CCL2 production in both, supernatants and celllysates.

RAW 264.7 cells [3] = assay: Mouse macrophage cell migration in response to CCL2; type: cell-based; conditions: recombinant mouse CCL2 (2D-100 ng/ml)
Experimental: Mouse macrophages cell migration in response to CCL2 was assessed with recombinant mouse CCL2 (2D-100 ng/ml) in RAW 264.7 cells. Latrunculin was used as a positive control to inhibit cell migration.

[4] = tested on: 111In-leukocytes in lumbosacral spinal canal of CCI rats; assay: SPECT/CT imaging of 111In-labeled leukocyte accumulation in lumbosacral spinal canal; type: in vivo, rat; conditions: NorBIRT injected vs saline
Excerpt: Initially, we determined that peripheral leukocytes accumulate in spinal regions that are necessary for pain signaling. We used a small animal SPECT/CT imaging system (single-photon emission computerized tomography) which was very similar to PET imaging, but which had better resolution. […] Blocking spinal leukocyte accumulation may be a novel therapeutic target promising for future clinical applications.
We next investigated whether peripheral immune cells in addition to spinal glia could participate in ongoing pain changes. First, it was determined whether leukocytes could extravasate into the lumbosacral region during ongoing neuropathy. Peritoneal leukocytes from same-strain donor rats were collected and labeled with a gamma-emitting radio-isotope […] and injected i.v. into either CCI or sham treated rats. Biodistributions were examined using a small animal SPECT/.
We quantified radioactivity—in uCis—in very discrete spinal regions of interest related to incoming sciatic pain information. We determined discrete differences in the levels of uCi activity within specific Lumbar vertebra and from the underlying L4-L6 spinal canal, even the associated intervertebral disc regions. We analyzed the L4-L6 spinal canal

[5] = tested on: rats with sciatic nerve chronic constriction injury (CCI); assay: Sciatic nerve chronic constriction injury (CCI) allodynia, von Frey test; type: in vivo, rat; conditions: for reversal of CCI-induced mechanical allodynia: 10 days after CCI
Excerpt: Glial (astrocytes, microglia, satellite & Schwann) cells are recognized as contributing to the development and maintenance of neuropathic pain [86]. Glia are well-known to serve a number of housekeeping functions for healthy neuronal communication. […] Glia have receptors for and are activated by invading pathogens, neuropeptides and neurotransmitters. Once activated, glia can contribute to persistent pathological pain by responding to and releasing factors that act on both neurons and surrounding glia. Classic immune signals include the pro-inflammatory cytokines, interleukin-1 (IL-1β) and tumor necrosis factor-alpha (TNF-α), and chemokines such as CCL2 [139, 142]. Chronic constriction injury (CCI) is a well-characterized animal model that involves both inflammation and trauma around one sciatic nerve. Loose sciatic nerve ligation of 4 sutures produces allodynia in hind paws of rodents. Allodynia in rodents is often measured by hind paw responses to low threshold mechanical stimuli (von Frey test). Clinically, allodynia is well-documented as a common problem for neuropathic pain patients, and the von Frey test is a highly validated assessment tool for allodynia. Several gene therapy vector approaches for neuropathic pain control are being pursued for directed delivery to the dorsal spinal cord & DRG (the pain compartments) & to specific cell types within those compartments, such as glial cells in the DRG (satellite & Schwann cells) or astrocytes and microglia in the dorsal horn of the spinal cord, with one recent clinical trial underway.
We sought to identify the best vector system, either of the viral-based adeno-associated virus (AAV) or the non-viral DNA-based vector (plasmid DNA; pDNA), to achieve therapeutic pain control when delivered to the spinal subarachnoid space (IT). […] While successful, the viral vectors were short-lived in their effects when one considers clinical neuropathic pain control. […] While continued progress toward designing improved viral vector systems may be worthy of future exploration, the optimal vector identified for long-duration pain control during the current grant period was determined to be free pDNA encoding the IL-10 gene (FIG. 2). Behavioral pain assessment is conducted as previously described. Briefly, rats are placed in a quite, dimly lit room and allowed to habituate to the testing environment for 4 consecutive days, 1 hr/day. Baseline (BL) responses are assessed with a series of graded calibrated filaments (0.4 g-15.0 g) applied to the plantar surface of the hindpaws for 6 sec, which elicits a reliable paw withdrawal response. The pDNA-based vector used in data described here and in ‘Preliminary Data’ contains inverted terminal repeat (ITRs) palindromic nucleotide sequences that are residual components from the original AAV vector and provide additional promoter activity, albeit, somewhat weak.. Therefore ITRs would only serve to augment the transcription driven by the expression cassette. The transcriptional cassette contains the cytomegalovirus enhancer/chicken b-actin promoter (CB-actin promoter), an intronic region, the rat IL-10 gene with a spontaneous point mutation (F129S) and the SV40 polyadenylation signal region.
The animal models used in the experiments of this example extend to the well characterized & widely used model of peripheral neuropathy—sciatic nerve chronic constriction injury which combines both direct trauma plus inflammation to the sciatic nerve. When the peripheral nerves become unhealthy, neuropathic pain often ensues. This model combines both inflammation from loosely tied chromic gut ligatures that leads to a localized inflammation followed by slight constriction. In this model, spinal cord glia are activated, PICs are produced and blocking the actions of glia & PICs prevents and reverses neuropathic pain.
This stimulus elicits a paw withdrawal response. Under normal conditions, rats respond to about 10 g of pressure. […]

IL-1β = IL-1β (ELISA) in supernatants and cell lysates of LPS-stimulated RAW 264.7 cells; type: cell-based, mouse; conditions: NorBIRT 500 ng/ml pretreatment, LPS 500 ng/ml
Experimental: Additionally, RAW 264.7 cells were pretreated with 500 ng/ml of NorBIRT and were stimulated with LPS (500 ng/ml). The levels of IL-1β were measured by ELISA, (A) supernatants and (B) celllysates. […] FIG. 22 illustrates that NorBIRT inhibits LPS-stimulated expression of IL-1β in RAW 264.7 cells.
(§1) Given the intriguing profile of NorBIRT's actions on reversing allodynia, we examined whether NorBIRT additionally altered proinflammatory cytokine levels. […] Intracellular IL-1b requires enzymatic cleavage to produce the mature released form. […] Thus NorBIRT is blocking the release of mature IL-1b. […] So, NorBIRT may additionally have anti-inflammatory properties.

IL-10 = IL-10 protein (ELISA) in LPS-stimulated RAW 264.7 cells; type: cell-based, mouse; conditions: co-incubation with NorBIRT and LPS 500 ng/ml
Experimental: Protein levels of Il-10 were evaluated using ELISA.
as §1

TNF-α = TNF-α protein (ELISA) in LPS stimulated RAW 264.7 cells; type: cell-based, mouse; conditions: NorBIRT 500 ng/ml 1 h, LPS 500 ng/ml 4 and 24 h
Experimental: In this experiment, cells were incubated with NorBIRT (500 ng/ml; 1 h) and after treatment with LPS (500 ng/ml; 4 and 24 h) the protein levels of TNF-α was evaluated by ELISA.

[6] = tested on: innate immune cells (macrophage, dendritic cells); conditions: IT IL-10 protein 4 hr prior to IT pDNA-IL10; cited from earlier work
[7] = tested on: rats with sciatic nerve chronic constriction injury (CCI); conditions: IT IL-10 protein 4 hr prior to IT pDNA-IL10; cited from earlier work
[8] = i.t. 10-fold higher dose of NorBIRT (Example 10)

Molecule: CN1C(=O)N(c2cc(Cl)cc(Cl)c2)C(=O)[C@@]1(C)Cc1ccc(Br)cc1 [BIRT-377, reference compound]
- antiproliferative and anti-migratory properties of leukocytes (leukocytes): exert antiproliferative and anti-migratory properties

Molecule: C[C@@]1(Cc2ccc(Br)cc2)C(=O)N(c2cc(Cl)cc(Cl)c2)C(=O)N1CCCCCN [NorBIRT]
- viability of RAW 264.7 cells (RAW 264.7 cells [1]): does not affect
- LPS-induced NO production [2]: inhibits
- LPS-stimulated LFA-1 protein expression (LFA-1): inhibits
- LPS-stimulated CCL2 production (CCL2): does not inhibit
- macrophage cell migration in response to CCL2 (RAW 264.7 cells [3]): inhibits
- leukocyte accumulation (uCi signal) in lumbosacral spinal canal [4]: no signal
- antiproliferative and anti-migratory properties of leukocytes (leukocytes): exert antiproliferative and anti-migratory properties
- change in allodynia ([5]; 500 ng i.v. NorBIRT vs saline, 48 and 72 hrs later): significant change; also recorded: reverses
- allodynia fully returned ([5]; after i.t. NorBIRT (Example 11)): ≤ 10 days
- reversal of 45-day enduring allodynia ([5]; higher dose i.t. NorBIRT on day 45): substantially reversed
- reversal of allodynia ([5]; i.t. 5 ng NorBIRT vs saline (Example 10)): very modestly reversed
- return of allodynia [5, 8]: ≤ 9 days
- reversal of allodynia [5, 8]: substantial reversal
- reversal of 10-day CCI-induced bilateral mechanical allodynia ([5]; i.t. NorBIRT vs i.t. vehicle (Example 11)): reversed
- time of peak effect after injection ([5]; i.t. NorBIRT, compared to sham controls): four
- effect on allodynia ([5]; i.t. higher dose 100 ng vs vehicle (Example 11)): dramatic reversal
- effect on allodynia ([5]; i.t. low dose 5 ng vs vehicle (Example 11)): lacking effects
- effect on allodynia ([5]; i.v. 5000 ng): attenuated allodynia bilaterally
- effect on allodynia ([5]; i.v. 100 000 ng): attenuated allodynia bilaterally
- dose-dependent reversal from allodynia ([5]; i.v. low dose, 5 days after injection, vs saline): did not produce
- reversal of CCI-induced mechanical allodynia ([5]; i.v. low dose, second experiment): did not reverse
- dose-dependent reversal from allodynia ([5]; i.v. low dose, throughout 8 days after injection, vs Sham): does not produce
- reversal of CCI-induced mechanical allodynia ([5]; i.v., relatively high doses, first experiment): reverses
- IL-1β release / LPS-stimulated expression (supernatants) (IL-1β): reduced; also recorded: attenuated; also recorded: inhibits
- intracellular IL-1β (cell lysates) (IL-1β): substantially increased
- IL-10 protein levels / release (IL-10): increases; also recorded: dose-dependently increased
- expression (protein levels) of TNF-α (TNF-α): attenuates

Molecule: IL-1 receptor antagonist: blocks spinal cord actions of IL1; drug with short half-life
- time of return of allodynia ([5]; intrathecal IL-1 receptor antagonist): ≤ 24 h
- effect on allodynia ([5]; intrathecal, after CCI): completely abolishes

B1: IL-10 protein: IT IL-10 protein (without transgene) (protein, UniProt P22301 19-178, looked up)
Interleukin-10: SPGQGTQSENSCTHFPGNLPNMLRDLRDAFSRVKTFFQMKDQLDNLLLKESLLEDFKGYLGCQALSEMIQFYLEEVMPQAENQDPDIKAHVNSLGENLKTLRLRLRRCHRFLPCENKSKAVEQVKNAFNKLQEKGIYKAMSEFDIFINYIEAYMTMKIRN
- cellular enrichment in surrounding CSF after IT pDNA-IL10 [6]: prevented
- long duration pain relief after IT pDNA-IL-10 [7]: prevented
